Columns and labels:
CYP2C9 = target: T1, CYP2C9 (Homo sapiens, UniProt P11712); assay: Human liver microsome CYP inhibition assay, CYP2C9; assay type: in vitro ADME; conditions: role: inhibitor; human liver microsomes, probe substrate; read-out: CYP2C9 half maximal inhibitory concentration IC50
T1 construct: Mixed human liver microsomes (HLM) were purchased from Corning Inc; tissue Corning Inc; host or cells: mixed human liver microsomes (HLM)
Experimental: (§1) Experimental objective: To evaluate the inhibitory activity of the test substance on human liver microsomal cytochrome P450 isoenzymes (CYP1A2, CYP2C9, CYP2C19, CYP2D6, CYP3A4) using a 5-in-1 probe substrate for CYP isoenzymes.
(§2) Mixed human liver microsomes (HLM) were purchased from Corning Inc. (Steuben, New York, USA) and stored at temperatures below −70° C. prior to use.
(§3) The working solution of the test substance, which had been diluted to a series of concentrations, was added to an incubation system containing human liver microsomes, probe substrates, and auxiliary factors of the circulatory system. A control containing solvent but no test substance served as an enzyme activity control (100%). The concentration of metabolites produced from probe substrates in the samples was determined using Liquid Chromatography-Tandem Mass Spectrometry (LC-MS/MS) method. Non-linear regression analysis of the average percentage activity of the test substance against its concentration was conducted using SigmaPlot (V.11). The IC50 values were calculated using a three-parameter or four-parameter inverse log equation.

CYP2C19 = target: T2, CYP2C19 (Homo sapiens, UniProt P33261); assay: Human liver microsome CYP inhibition assay, CYP2C19; assay type: in vitro ADME; conditions: role: inhibitor; human liver microsomes, probe substrate; read-out: CYP2C19 half maximal inhibitory concentration IC50
T2 construct: Mixed human liver microsomes (HLM) were purchased from Corning Inc; tissue Corning Inc; host or cells: mixed human liver microsomes (HLM)
T2 sequence (P33261 whole entry): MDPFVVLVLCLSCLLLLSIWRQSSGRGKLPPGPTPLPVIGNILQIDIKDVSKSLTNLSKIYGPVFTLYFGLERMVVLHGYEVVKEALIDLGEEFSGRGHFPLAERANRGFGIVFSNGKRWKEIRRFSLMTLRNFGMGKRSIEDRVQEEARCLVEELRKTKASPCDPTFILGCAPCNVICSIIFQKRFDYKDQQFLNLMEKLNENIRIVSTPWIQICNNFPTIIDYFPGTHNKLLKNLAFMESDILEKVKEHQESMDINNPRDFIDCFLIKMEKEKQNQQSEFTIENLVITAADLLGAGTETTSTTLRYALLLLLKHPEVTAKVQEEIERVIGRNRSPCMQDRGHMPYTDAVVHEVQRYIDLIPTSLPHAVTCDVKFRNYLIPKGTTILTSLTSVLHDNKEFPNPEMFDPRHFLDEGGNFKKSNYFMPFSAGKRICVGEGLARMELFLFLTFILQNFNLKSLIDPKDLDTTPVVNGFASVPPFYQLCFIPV
Experimental: as §1, §2, §3

[1] = Plasma protein binding rate test, SD rat (equilibrium dialysis); assay type: in vitro ADME; conditions: 37° C., read-out: Plasma protein binding rate (%) in SD rats (converted)
Description: (§4) The sample was thoroughly mixed.

CYP3A4 = target: T3, CYP3A4 (Homo sapiens, UniProt P08684); assay: Human liver microsome CYP inhibition assay, CYP3A4; assay type: in vitro ADME; conditions: role: inhibitor; human liver microsomes, probe substrate; read-out: CYP3A4 half maximal inhibitory concentration IC50
T3 construct: Mixed human liver microsomes (HLM) were purchased from Corning Inc; tissue Corning Inc; host or cells: mixed human liver microsomes (HLM)
T3 sequence (P08684 whole entry): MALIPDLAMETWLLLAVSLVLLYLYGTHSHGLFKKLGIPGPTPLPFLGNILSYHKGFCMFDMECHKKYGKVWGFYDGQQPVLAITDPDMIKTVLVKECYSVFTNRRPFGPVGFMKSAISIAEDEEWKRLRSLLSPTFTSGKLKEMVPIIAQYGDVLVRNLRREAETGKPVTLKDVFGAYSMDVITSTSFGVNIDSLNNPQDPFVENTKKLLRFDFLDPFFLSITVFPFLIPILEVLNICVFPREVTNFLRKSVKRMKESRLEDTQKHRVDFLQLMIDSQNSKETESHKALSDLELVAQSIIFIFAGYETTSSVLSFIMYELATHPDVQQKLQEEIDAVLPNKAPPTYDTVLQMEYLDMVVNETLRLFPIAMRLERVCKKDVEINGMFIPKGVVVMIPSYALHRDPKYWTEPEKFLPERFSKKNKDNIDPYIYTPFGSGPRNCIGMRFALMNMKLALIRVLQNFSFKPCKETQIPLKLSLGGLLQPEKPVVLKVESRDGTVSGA
Experimental: as §1, §2, §3

[2] = Plasma protein binding rate test, cynomolgus monkey (equilibrium dialysis); assay type: in vitro ADME; conditions: 37° C., read-out: Plasma protein binding rate (%) in cynomolgus monkeys (converted)
Description: as §4

[3] = Permeability test in MDR1-MDCKII monolayer cell model; assay type: in vitro ADME; conditions: dog
Experimental: Experimental objective: The permeability and efflux ratio of the compound of the present disclosure were determined using the MDR1-MDCKII monolayer cell model to assess its membrane permeability and potential for P-gp-mediated efflux transport.
Experimental protocol: MDR1-MDCKII cells (obtained from the Netherlands Cancer Institute) were seeded in 96-well plates (obtained from Corning) at a cell density of 3.33×10^5 cells/mL and cultured for 4 to 7 days to form confluent cell monolayers. Hank's balanced salt solution containing 10 mM HEPES (pH 7.40) was used as the transport buffer. The test compound was evaluated for bidirectional transport at a concentration of 2 μM, with the DMSO concentration in the incubation system maintained below 1%. After adding the samples, the cell plate was incubated at 37±1° C., 5% CO2, and saturated humidity for 2.5 hours. All samples were quantitatively analyzed using the LC-MS/MS method. The apparent permeability coefficient (Papp, cm/s) and efflux ratio (ER) were calculated using the following formula. Apparent permeability coefficient (Papp, cm/s) was calculated using the following formula: Papp=(dCr/dt)×Vr/(A×C0). Herein, dCr/dt represents the cumulative concentration of the compound at the receiving end per unit time (μM/s); Vr is the volume of the solution at the receiving end (with solution volumes at the apical and basolateral ends being 0.075 mL and 0.250 mL, respectively); A is the relative surface area of the cell monolayer (0.143 cm^2); C0 is the initial concentration of the test substance at the dosing end (μM) or the peak area ratio of the reference substance. The efflux ratio was calculated using the following formula: ER=Papp(BA)/Papp(AB).

[4] = In vitro liver microsome metabolic stability study; assay type: in vitro ADME; conditions: human liver microsomes 0.5 mg/mL, compound 1 μM, 37° C., up to 60 minutes; read-out: Intrinsic hepatic clearance CLint(liver)
Experimental: Stock solution: 10 mM in DMSO.
Only 54 μL of microsomal working solution, 6 μL of NADPH regeneration system working solution, and 180 μL of stop solution were added to the blank plate.
LC-MS/MS analysis was performed.

CYP2D6 = target: T4, CYP2D6 (Homo sapiens, UniProt P10635); assay: Human liver microsome CYP inhibition assay, CYP2D6; assay type: in vitro ADME; conditions: role: inhibitor; human liver microsomes, probe substrate; read-out: CYP2D6 half maximal inhibitory concentration IC50
T4 construct: Mixed human liver microsomes (HLM) were purchased from Corning Inc; tissue Corning Inc; host or cells: mixed human liver microsomes (HLM)
T4 sequence (P10635 whole entry): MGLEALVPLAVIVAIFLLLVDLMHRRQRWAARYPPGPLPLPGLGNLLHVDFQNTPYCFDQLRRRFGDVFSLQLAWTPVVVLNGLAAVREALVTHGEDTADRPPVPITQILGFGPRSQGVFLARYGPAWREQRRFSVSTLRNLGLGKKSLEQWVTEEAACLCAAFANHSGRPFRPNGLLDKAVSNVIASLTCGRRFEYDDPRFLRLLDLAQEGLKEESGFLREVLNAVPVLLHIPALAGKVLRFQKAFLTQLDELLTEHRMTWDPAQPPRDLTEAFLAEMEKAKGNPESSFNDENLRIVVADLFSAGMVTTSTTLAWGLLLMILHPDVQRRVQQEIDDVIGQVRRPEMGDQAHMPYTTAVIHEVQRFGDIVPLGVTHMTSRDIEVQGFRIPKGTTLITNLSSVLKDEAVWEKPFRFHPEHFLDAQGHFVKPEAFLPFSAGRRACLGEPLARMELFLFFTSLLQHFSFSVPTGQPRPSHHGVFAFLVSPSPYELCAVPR
Experimental: as §1, §2, §3

[5] = Plasma protein binding rate test, human (equilibrium dialysis); assay type: in vitro ADME; conditions: 37° C.
Description: as §4

CYP1A2 = target: T5, CYP1A2 (Homo sapiens, UniProt P05177); assay: Human liver microsome CYP inhibition assay, CYP1A2; assay type: in vitro ADME; conditions: role: inhibitor; human liver microsomes, probe substrate; read-out: CYP1A2 half maximal inhibitory concentration IC50
T5 construct: Mixed human liver microsomes (HLM) were purchased from Corning Inc; tissue Corning Inc; host or cells: mixed human liver microsomes (HLM)
T5 sequence (P05177 1-516): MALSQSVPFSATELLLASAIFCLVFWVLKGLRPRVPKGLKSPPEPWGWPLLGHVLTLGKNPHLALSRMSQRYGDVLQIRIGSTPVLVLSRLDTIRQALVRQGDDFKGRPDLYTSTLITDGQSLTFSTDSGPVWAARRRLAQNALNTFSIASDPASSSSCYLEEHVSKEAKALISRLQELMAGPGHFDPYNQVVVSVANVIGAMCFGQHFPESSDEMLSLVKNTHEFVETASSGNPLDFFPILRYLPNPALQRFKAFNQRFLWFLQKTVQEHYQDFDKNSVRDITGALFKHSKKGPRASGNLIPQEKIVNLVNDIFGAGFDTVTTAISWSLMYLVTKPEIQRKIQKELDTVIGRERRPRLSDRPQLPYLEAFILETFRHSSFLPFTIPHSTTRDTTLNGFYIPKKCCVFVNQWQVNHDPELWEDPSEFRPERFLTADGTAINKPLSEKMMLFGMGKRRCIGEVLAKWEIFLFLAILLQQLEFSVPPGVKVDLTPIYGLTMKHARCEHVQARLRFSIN
Experimental: as §1, §2, §3

human CYP11B1 = target: T6, human CYP11B1 (Homo sapiens, UniProt P15538); assay: In vitro activity assay of monoclonal cells overexpressing human CYP11B1; assay type: cell-based; conditions: G402 cells overexpressing human CYP11B1; substrate 11-deoxycortisol 1 μM; 16 hours
T6 construct: expressed in transfected cells; host or cells: human renal leiomyoma G402 cell line (monoclonal cells overexpressing human CYP11B1)
T6 sequence (P15538 25-503): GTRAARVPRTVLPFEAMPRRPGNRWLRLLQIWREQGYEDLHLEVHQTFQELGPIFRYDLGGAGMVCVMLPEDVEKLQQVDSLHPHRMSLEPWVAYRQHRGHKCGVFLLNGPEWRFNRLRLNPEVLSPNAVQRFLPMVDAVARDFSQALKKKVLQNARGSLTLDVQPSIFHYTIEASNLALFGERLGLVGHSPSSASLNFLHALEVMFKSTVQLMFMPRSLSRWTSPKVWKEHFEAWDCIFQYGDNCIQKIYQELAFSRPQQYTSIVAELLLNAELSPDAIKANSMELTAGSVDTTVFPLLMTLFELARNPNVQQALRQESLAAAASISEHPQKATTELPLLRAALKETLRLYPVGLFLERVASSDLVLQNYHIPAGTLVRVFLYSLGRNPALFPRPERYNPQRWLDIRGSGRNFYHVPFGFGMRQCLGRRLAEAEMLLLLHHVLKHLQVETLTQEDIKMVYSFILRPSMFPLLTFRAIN
Experimental: The human renal leiomyoma G402 cell line overexpressing human CYP11B1 was selected to serve as a compound selectivity screening system. Details are as follows: • 1) The cells, reagents, and instrument information were consistent with Experimental Example 1 (activity of monoclonal cells overexpressing human CYP11B2). • 2) Compound details: The test compound was prepared as a […] working concentration using DMSO. • 3) Experimental procedure
Day 1: Cells were digested, and human renal leiomyoma G402 cells overexpressing CYP11B1 were resuspended to 1×10^5 cells/mL, with […] seeded into a 96-well plate.
Day 2: The medium was replaced with DMEM/F12 containing 2.5% charcoal-stripped fetal bovine serum.
After one hour, the substrate was added: 30 mM 11-deoxycortisol was diluted 1500-fold with culture medium, and 5 μL was dispensed per well to achieve a final concentration of 1 μM, followed by incubation for 16 hours.
Day 3: The cell supernatant was collected and added to 200 μL of a methanol solution containing internal standards (internal standards: 35 ng/mL ketoprofen or 7.5 ng/mL carbamazepine or 5 ng/mL diphenhydramine or 10 ng/mL tolbutamide). […] The mixture was centrifuged (4000 g, 4° C., 15 min), and the supernatant was analyzed by ESI-LCMS/MS. • 4) Data analysis: […]
(§5) The IC50 of the test compound was determined by fitting to a nonlinear regression equation using XLfit 5.5.0.

human CYP11B2 = target: T7, human CYP11B2 (Homo sapiens, UniProt P19099); assay: In vitro activity assay of monoclonal cells overexpressing human CYP11B2; assay type: cell-based; conditions: G402 cells overexpressing human CYP11B2; substrate 11-deoxycorticosterone; 16 hours; aldosterone by LCMS/MS
T7 construct: expressed in transfected cells; host or cells: human renal leiomyoma G402 cell line (monoclonal cells overexpressing human CYP11B2)
T7 sequence (P19099 25-503): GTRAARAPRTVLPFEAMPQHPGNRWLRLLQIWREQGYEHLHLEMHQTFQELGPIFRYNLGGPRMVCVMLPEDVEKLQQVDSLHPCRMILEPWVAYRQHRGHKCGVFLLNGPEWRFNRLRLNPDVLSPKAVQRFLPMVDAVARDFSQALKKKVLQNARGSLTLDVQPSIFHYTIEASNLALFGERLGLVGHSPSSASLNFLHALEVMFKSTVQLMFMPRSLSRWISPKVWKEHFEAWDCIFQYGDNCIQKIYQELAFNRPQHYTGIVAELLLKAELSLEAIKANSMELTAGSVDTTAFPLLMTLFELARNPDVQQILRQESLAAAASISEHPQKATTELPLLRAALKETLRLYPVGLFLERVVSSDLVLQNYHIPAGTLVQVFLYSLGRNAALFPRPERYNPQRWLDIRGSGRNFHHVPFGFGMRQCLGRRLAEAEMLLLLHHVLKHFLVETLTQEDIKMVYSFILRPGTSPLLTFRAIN
Experimental: The human renal leiomyoma G402 cell line overexpressing human CYP11B2 was selected to serve as a compound activity screening system.
• 2) Compound details: The test compound was prepared as a 10 μM working concentration using DMSO.
Day 1: Cells were digested, and human renal leiomyoma G402 cells overexpressing human CYP11B2 were resuspended to 1×10^5 cells/mL, with 100 μL seeded into a 96-well plate.
Day 2: The medium was replaced with DMEM/F12 containing 2.5% charcoal-stripped fetal bovine serum; test compounds were added: 5 μL of test compound was added to the cell culture medium to achieve final concentrations of 10000, 2500, 625, 156.25, 39.06, 9.77, 2.44, 0.61, 0.15, and 0 nM (with a DMSO content of 0.1%).
After one hour, the substrate was added: 30 mM 11-deoxycorticosterone was diluted 1500-fold with culture medium, and 5 μL was dispensed per well to achieve a final concentration of […], followed by incubation for 16 hours.
Day 3: The cell supernatant was collected and added to 200 μL of a methanol solution containing internal standards (internal standards: 35 ng/mL ketoprofen or 7.5 ng/mL carbamazepine or 5 ng/mL diphenhydramine or 10 ng/mL tolbutamide). The mixture was vortexed and centrifuged (4000×g, 4° C., 5 minutes). Then, 100 μL of the supernatant was taken and mixed with 100 μL of pure water. The mixture was centrifuged (4000 g, 4° C., 15 min), and the supernatant was analyzed by ESI-LCMS/MS. • 4) Data analysis:
Ratio=Aldosterone peak area/Internal standard peak area
Control activity %=(Ratio test compound/Ratio DMSO)×100%
“Ratio test compound” represents the Ratio values at different concentrations of the test compound.
“Ratio DMSO” represents the Ratio value without the addition of the test compound. • X=Log (compound concentration) • Y=Control activity %
as §5

T1 sequence (P11712 whole entry): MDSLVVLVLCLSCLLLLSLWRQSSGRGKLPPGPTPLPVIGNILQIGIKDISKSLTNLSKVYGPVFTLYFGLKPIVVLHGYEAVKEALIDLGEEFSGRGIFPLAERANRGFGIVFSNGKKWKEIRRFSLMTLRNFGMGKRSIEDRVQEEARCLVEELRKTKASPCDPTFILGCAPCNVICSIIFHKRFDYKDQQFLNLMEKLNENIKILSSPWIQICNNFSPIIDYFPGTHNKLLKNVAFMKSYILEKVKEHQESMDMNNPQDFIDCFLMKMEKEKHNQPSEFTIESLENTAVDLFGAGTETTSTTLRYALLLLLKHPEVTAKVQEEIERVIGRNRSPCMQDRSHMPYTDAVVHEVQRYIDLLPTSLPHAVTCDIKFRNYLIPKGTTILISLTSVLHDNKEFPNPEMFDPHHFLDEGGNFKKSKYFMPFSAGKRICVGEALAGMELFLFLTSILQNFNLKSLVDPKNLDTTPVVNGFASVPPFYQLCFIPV

| SMILES | IC50 (CYP2C9) | IC50 (CYP2C19) | fraction unbound at 4 h [1] | IC50 (CYP3A4) | fraction unbound at 4 h [2] | efflux ratio at 2.5 h, 2 µM ([3]; MDCK-MDR1, pH 7.4, ER=Papp(BA)/Papp(AB)) | Papp A→B at 2.5 h, 2 µM ([3]; MDCK-MDR1, pH 7.4, pH 7.40, 2.5 hours, 37±1° C., read-out: Apparent permeability coefficient (Papp (AB))) | CLint scaled at 1 µM [4] | IC50 (CYP2D6) | fraction unbound at 4 h [5] | IC50 (CYP1A2) | IC50 (human CYP11B1) | IC50 (human CYP11B2) |
| --- | --- | --- | --- | --- | --- | --- | --- | --- | --- | --- | --- | --- | --- |
| CCC(=O)NC1CCCc2c(-c3ccc4c(c3)OCC(=O)N4C)cncc21 (single isomer, unassigned) [Compound 011] | > 50 µM | > 50 µM | 0.139 | > 50 µM | 0.245 | 0.89 | 24.3 ×10⁻⁶ cm/s | < 8.6 mL/min/kg | > 50 µM | 0.245 | > 50 µM | – | – |
| CCC(=O)N[C@@H]1CCCc2c(-c3cnc4c(ccc(=O)n4C)c3)cncc21 (single isomer, unassigned) [Compound 022] | – | – | – | – | – | – | – | – | – | – | – | 6.89 µM | 0.0487 µM |

From patent US20260317314A1, “NITROGEN-CONTAINING HETEROCYCLIC COMPOUND AND USE THEREOF” (JIANGSU DEYUAN PHARMACEUTICAL CO.,LTD., priority 2023, published 2026)
